What is called Ki is a measure of affinity in units of concentration, obtained from inhibition or displacement. The low end stands for higher affinity, the high end for lower affinity.

This passage reports Ki results from ChEMBL document CHEMBL1138864, “Synthesis of novel caspase inhibitors for characterization of the active caspase proteome in vitro and in vivo” (J Med Chem, 2006).

Each structure is given as a SMILES string.

One assay deals with T1, Caspase-6 (Homo sapiens, UniProt P55212).
T1 sequence (P55212 whole entry): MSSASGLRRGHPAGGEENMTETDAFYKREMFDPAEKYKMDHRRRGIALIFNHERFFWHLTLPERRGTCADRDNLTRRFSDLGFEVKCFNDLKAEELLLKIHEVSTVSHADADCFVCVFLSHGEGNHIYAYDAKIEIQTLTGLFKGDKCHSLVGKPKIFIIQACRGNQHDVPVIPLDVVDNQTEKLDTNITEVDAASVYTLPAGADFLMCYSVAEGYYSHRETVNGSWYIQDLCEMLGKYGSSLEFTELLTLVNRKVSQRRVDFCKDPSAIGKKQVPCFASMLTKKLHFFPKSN
The experiment in a line: Inhibition of human caspase 6.

The target in the next assay is T2, Caspase-1 (Homo sapiens, UniProt P29466).
T2 sequence (P29466 whole entry): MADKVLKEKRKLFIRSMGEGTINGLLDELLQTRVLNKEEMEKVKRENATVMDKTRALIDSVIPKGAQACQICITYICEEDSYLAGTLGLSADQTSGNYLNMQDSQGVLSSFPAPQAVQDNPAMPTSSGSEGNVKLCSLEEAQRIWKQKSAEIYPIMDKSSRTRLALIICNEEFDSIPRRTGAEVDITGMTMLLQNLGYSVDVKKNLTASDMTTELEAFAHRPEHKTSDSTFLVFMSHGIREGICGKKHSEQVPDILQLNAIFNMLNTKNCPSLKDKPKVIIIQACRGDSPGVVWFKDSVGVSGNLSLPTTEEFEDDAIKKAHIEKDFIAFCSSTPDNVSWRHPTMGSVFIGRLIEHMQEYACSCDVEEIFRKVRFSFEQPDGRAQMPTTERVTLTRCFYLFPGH
As to the kind of experiment: Inhibition of human caspase 1.

In another assay the target is Caspase-8 (Homo sapiens, UniProt Q14790). The experiment in a line: Inhibition of human caspase 8.
For another assay, the target named is T3, Caspase-3 (Homo sapiens, UniProt P42574).
T3 sequence (P42574 whole entry): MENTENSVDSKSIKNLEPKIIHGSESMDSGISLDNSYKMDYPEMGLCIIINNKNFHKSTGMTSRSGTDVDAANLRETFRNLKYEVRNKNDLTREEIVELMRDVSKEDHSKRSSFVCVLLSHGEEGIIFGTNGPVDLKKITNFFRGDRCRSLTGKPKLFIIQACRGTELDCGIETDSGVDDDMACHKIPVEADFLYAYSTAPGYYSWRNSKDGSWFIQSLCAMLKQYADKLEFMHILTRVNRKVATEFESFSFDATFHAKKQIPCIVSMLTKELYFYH
The experiment in a line: Inhibition of human caspase 3.

In a further assay the target is T4, Caspase-2 (Homo sapiens, UniProt P42575).
T4 sequence (P42575 whole entry): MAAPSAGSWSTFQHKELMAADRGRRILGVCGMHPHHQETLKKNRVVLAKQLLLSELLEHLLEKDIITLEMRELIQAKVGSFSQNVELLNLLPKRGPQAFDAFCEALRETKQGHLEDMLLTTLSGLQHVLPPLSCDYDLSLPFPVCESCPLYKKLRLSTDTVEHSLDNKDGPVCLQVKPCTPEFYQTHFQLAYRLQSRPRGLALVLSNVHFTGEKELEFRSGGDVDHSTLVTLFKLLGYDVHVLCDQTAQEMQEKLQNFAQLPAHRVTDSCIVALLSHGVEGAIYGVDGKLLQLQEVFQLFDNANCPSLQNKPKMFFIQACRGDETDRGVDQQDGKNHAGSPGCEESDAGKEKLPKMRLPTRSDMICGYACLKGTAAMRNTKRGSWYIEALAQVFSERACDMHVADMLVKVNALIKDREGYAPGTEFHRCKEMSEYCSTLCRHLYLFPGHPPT
As to the kind of experiment: Inhibition of human caspase 2.

Another assay concerns the target T5, Caspase-7 (Homo sapiens, UniProt P55210).
T5 sequence (P55210 whole entry): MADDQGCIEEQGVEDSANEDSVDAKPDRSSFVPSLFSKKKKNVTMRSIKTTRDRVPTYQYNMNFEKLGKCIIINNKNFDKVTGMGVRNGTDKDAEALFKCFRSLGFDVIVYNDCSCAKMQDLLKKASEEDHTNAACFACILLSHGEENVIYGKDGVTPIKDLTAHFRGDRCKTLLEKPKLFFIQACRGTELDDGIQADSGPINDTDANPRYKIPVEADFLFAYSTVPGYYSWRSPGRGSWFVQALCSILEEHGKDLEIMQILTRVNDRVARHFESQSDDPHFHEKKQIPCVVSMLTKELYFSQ
As to the kind of experiment: Inhibition of human caspase 7.

Caspase-8, sequence (Q14790 217-374 limits assumed): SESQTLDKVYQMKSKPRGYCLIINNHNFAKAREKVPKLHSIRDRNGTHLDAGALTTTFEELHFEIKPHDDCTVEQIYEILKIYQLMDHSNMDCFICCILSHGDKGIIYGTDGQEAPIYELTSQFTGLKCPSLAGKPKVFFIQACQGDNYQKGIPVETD
Caspase-8, sequence (Q14790 385-479 limits assumed): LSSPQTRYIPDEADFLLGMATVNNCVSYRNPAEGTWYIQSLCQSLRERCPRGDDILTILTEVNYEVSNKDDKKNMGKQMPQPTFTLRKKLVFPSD

As for `Cc1cccc(C)c1C(=O)OCC(=O)[C@H](CC(=O)O)NC(=O)[C@H](CCCCNC(=O)CCCCCNC(=O)CCCCC1SC[C@@H]2NC(=O)N[C@H]12)NC(=O)[C@H](CCC(=O)O)NC(=O)OCc1ccccc1` (stereo partly specified), the Ki is 550000 nM on Caspase-6; 6.3 nM on Caspase-1; 540 nM at Caspase-8; 840 nM on Caspase-3; 29000 nM at Caspase-2; 1200 nM at Caspase-7.
